Entries after “also recorded” stand apart in the source; their conditions may differ. Where two headings read alike, the source gives them in different places.
Legend:
[1] = tested on: TTP-dependent kinase(s) (TTP-kinase, TTP-43K-kinase); assay: TTP-dependent phosphorylation of 43K rapsyn by endogenous kinase(s) in nAChR-rich postsynaptic membranes; format: biochemical, Torpedo marmorata; details: for IC50: FIG. 3A, preincubation with cold triphosphate, read-out: IC50, inhibition of TTP-dependent phosphorylation of 43K rapsyn
Method: (§1) nAChR-rich postsynaptic membranes (nAChR-membranes) were prepared from electric organs excised from freshly killed Torpedo marmorata (T.m.) (Biologie Marine, Arcachon) (3, 16).
(§2) [γ-^32P]-TTP (^32P-TTP) was synthesized (27). nAChR-membranes were phosphorylated with (7-8000 Ci/mol) ^32P-TTP or ^32P-ATP in 50 mM Tris-HCl pH 7.5, 5-15 mM MgCl2, 0.08% CHAPS, inhibitors of proteases at 4°-20° C. for 60-90 minutes. […] Coomassie blue staining was performed when necessary. Where specified, nAChR-membranes were treated with 5-20 mM diethylpyrocarbonate (DEPC.) (28) in 50 mM Na phosphate buffer pH 6.0 and 7.4 (20 min, 16° C.), prior to incubation with ^32P-TTP.
A purified extract containing the kinase responsible for the TTP dependent phosphorylation of histidine residues on rapsyn, is preincubated with increasing concentration of products inhibiting the enzymatic activity of said kinase (FIG. 3A).

[2] = tested on: endogenous protein kinase A (PKA); assay: ATP-dependent phosphorylation of 43K rapsyn in nAChR-rich postsynaptic membranes; format: biochemical, Torpedo marmorata
Method: as §1, §2

[3] = target: T1, Nucleoside diphosphate kinase (NDPK) (Dictyostelium discoideum, UniProt P22887); assay: Phosphorylation of NDPK with 32P-ATP or 32P-TTP as phosphodonor; format: biochemical; details: data not shown
T1 sequence (P22887 1-155): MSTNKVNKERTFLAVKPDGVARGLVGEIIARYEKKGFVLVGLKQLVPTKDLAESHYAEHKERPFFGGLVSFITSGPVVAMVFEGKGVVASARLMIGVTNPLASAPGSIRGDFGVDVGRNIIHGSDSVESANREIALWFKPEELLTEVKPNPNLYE
Method: NDPK is a highly conserved enzyme which plays a key role in growth and metastasis control (47). As the enzyme autophosphorylates histidine and presents a broad specificity, phosphorylation was assayed with TTP.

[4] = Chemical stability of the phosphate links of phosphorylated 43K rapsyn (TCA / KOH treatment); format: physicochemical, Torpedo marmorata; details: for P-aa stability (base): PVDF blot + base; for P-aa stability (acid): SDS-PAGE gel + acid
Method: For acid treatment, SDS-PAGE gels containing ^32P-ATP- or ^32P-TTP-treated membranes were cut and incubated with Tris buffer or 16% TCA at 90° C. (29, 30), washed, and analyzed. Equivalent amounts of 43K rapsyn were ensured by Coomassie blue staining. For base treatment, ^32P-labeled membranes were resolved by SDS-PAGE, electroblotted on polyvinylidene difluoride membrane (PVDF). Blots were dried at 55° C. to minimize protein loss, wet in methanol, washed with H2O, cut and incubated in water or 1N KOH at 46° C. and analyzed.

Molecule: Nc1ncnc2c1nc(Sc1ccc(Cl)cc1)n2[C@@H]1O[C@@H]2COP(=O)([O-])O[C@H]2[C@H]1O.[Na+] [8-CPT-cAMP, Adenosine 3′-5′-cyclic monophosphate, 8-(4-Chlorophenylthio)-sodium salt]
- effect on TTP-dependent phosphorylation of 43K rapsyn / TTP-kinase activity (in words) [1]: did not drastically alter

Molecule: Nc1ncnc2c1ncn2[C@@H]1O[C@H](COP(=O)(O)OP(=O)(O)OP(=O)(O)O)[C@@H](O)[C@H]1O [ATP, adenosine triphosphate]
- effect on TTP-dependent phosphorylation of 43K rapsyn / TTP-kinase activity (in words) [1]: specifically inhibited
- IC50 [1]: ~500 µM
- effect on 32P-ATP-dependent 43K rapsyn phosphorylation (in words) [2]: specifically inhibited

Molecule: Nc1ccn([C@@H]2O[C@H](COP(=O)(O)OP(=O)(O)OP(=O)(O)O)[C@@H](O)[C@H]2O)c(=O)n1 [CTP]
- effect on TTP-dependent phosphorylation of 43K rapsyn / TTP-kinase activity (in words) [1]: inhibits poorly

Molecule: CCOC(=O)OC(=O)OCC [DEPC, diethylpyrocarbonate]
- 43K rapsyn phosphorylation, % 32P ([1]; membranes pretreated with 5-20 mM DEPC, versus 100±19% in mock membranes): 20±2%

Molecule: O[C@@H](CS)[C@@H](O)CS [DTT]
- effect on TTP-dependent phosphorylation of 43K rapsyn / TTP-kinase activity (in words) [1]: partially inhibited
- % inhibition of TTP-kinase activity ([1]; 10 mM): 30-40%

Molecule: CN(C)CCCn1cc(C2=C(c3c[nH]c4ccccc34)C(=O)NC2=O)c2ccccc21 [GFX, bisindolylmaleimide I]
- effect on TTP-dependent phosphorylation of 43K rapsyn / TTP-kinase activity (in words) [1]: did not drastically alter

Molecule: Nc1nc2c(ncn2[C@@H]2O[C@H](COP(=O)(O)OP(=O)(O)OP(=O)(O)O)[C@@H](O)[C@H]2O)c(=O)[nH]1 [GTP]
- IC50 [1]: ~1000 µM

Molecule: CC1CNCCN1S(=O)(=O)c1cccc2cnccc12 (centres unmarked) [H7]
- effect on TTP-dependent phosphorylation of 43K rapsyn / TTP-kinase activity (in words) [1]: did not drastically alter

Molecule: O=S(=O)(NCCNC/C=C/c1ccc(Br)cc1)c1cccc2cnccc12 [H89]
- effect on TTP-dependent phosphorylation of 43K rapsyn / TTP-kinase activity (in words) [1]: did not drastically alter

Molecule: CN([C@@H](Cc1ccc(OS(=O)(=O)c2cccc3cnccc23)cc1)C(=O)N1CCN(c2ccccc2)CC1)S(=O)(=O)c1cccc2cnccc12 [KN62]
- effect on TTP-dependent phosphorylation of 43K rapsyn / TTP-kinase activity (in words) [1]: did not drastically alter

Molecule: CCCCCCOC(=O)[C@]1(O)C[C@@H]2O[C@@]1(C)n1c3ccccc3c3c4c(c5c6ccccc6n2c5c31)C(=O)NC4 [KT5720]
- effect on TTP-dependent phosphorylation of 43K rapsyn / TTP-kinase activity (in words) [1]: did not drastically alter

Molecule: O=S(=O)(c1cccc2c(I)cccc12)N1CCCNCC1 [ML7]
- effect on TTP-dependent phosphorylation of 43K rapsyn / TTP-kinase activity (in words) [1]: did not drastically alter

Molecule: [Mg+2] [Mg^2+]
- effect on TTP-dependent phosphorylation of 43K rapsyn / TTP-kinase activity (in words) [1]: enhanced

Molecule: CCCCCCCCCCCCCC(=O)O[C@@H]1[C@@H](C)[C@@]2(O)[C@@H](C=C(CO)C[C@]3(O)C(=O)C(C)=C[C@@H]23)[C@@H]2C(C)(C)[C@]12OC(C)=O [TPA, phorbol-12-myristate-13-acetate]
- effect on TTP-dependent phosphorylation of 43K rapsyn / TTP-kinase activity (in words) [1]: did not drastically alter

Molecule: [Zn+2] [Zn^2+]
- effect on TTP-dependent phosphorylation of 43K rapsyn / TTP-kinase activity (in words) [1]: inhibited; also recorded: prevented
- % inhibition of TTP-dependent phosphorylation of 43K rapsyn ([1]; 0.5-3 mM Zn2+, 8 μM 32P-TTP, Mg2+ independent): ~70%

Molecule: Nc1ncnc2c1ncn2[C@@H]1O[C@H](COP(=O)(O)OP(=O)(O)O[32P](=O)(O)O)[C@@H](O)[C@H]1O [^32P-ATP, [γ-^32P]-ATP, reference compound]
- concentration saturating 43K rapsyn phosphorylation ([2]; not yet saturated): > 200 µM
- phosphorylation of NDPK by the phosphodonor [3]: strongly phosphorylated

Molecule: Cc1ncc(C[n+]2csc(CCOP(=O)(O)OP(=O)(O)O[32P](=O)([O-])O)c2C)c(N)n1 [^32P-TTP, [γ-^32P]-TTP]
- concentration saturating 43K rapsyn phosphorylation ([1]; FIG. 3C): 25 to 50 µM
- phosphorylation of NDPK by the phosphodonor [3]: not

Molecule: COc1ccc(C[C@H]2NC[C@H](O)[C@H]2OC(C)=O)cc1 [anisomycin]
- effect on TTP-dependent phosphorylation of 43K rapsyn / TTP-kinase activity (in words) [1]: did not drastically alter

Molecule: Nc1nc2c(ncn2[C@@H]2O[C@@H]3COP(=O)(O)O[C@H]3[C@H]2O)c(=O)[nH]1 [cGMP]
- effect on TTP-dependent phosphorylation of 43K rapsyn / TTP-kinase activity (in words) [1]: did not drastically alter

Molecule: Clc1ccc(C(c2ccc(Cl)cc2)n2cc[n+](CC(OCc3ccc(Cl)cc3Cl)c3ccc(Cl)cc3Cl)c2)cc1 (centres unmarked) [calmidazolium]
- effect on TTP-dependent phosphorylation of 43K rapsyn / TTP-kinase activity (in words) [1]: did not drastically alter

Molecule: O=c1c(-c2ccc(O)cc2)coc2cc(O)cc(O)c12 [genisterin, genistein]
- effect on TTP-dependent phosphorylation of 43K rapsyn / TTP-kinase activity (in words) [1]: did not drastically alter

Molecule: CN[C@@H]1C[C@H]2O[C@@](C)([C@@H]1OC)n1c3ccccc3c3c4c(c5c6ccccc6n2c5c31)C(=O)NC4 [staurosporine]
- effect on TTP-dependent phosphorylation of 43K rapsyn / TTP-kinase activity (in words) [1]: did not drastically alter

Molecule: TNF-α
- effect on TTP-dependent phosphorylation of 43K rapsyn / TTP-kinase activity (in words) [1]: did not drastically alter

Molecule: calphostin
- effect on TTP-dependent phosphorylation of 43K rapsyn / TTP-kinase activity (in words) [1]: did not drastically alter

B1: 43K-rapsyn/ATP: 43K rapsyn phosphorylated with ^32P-ATP (protein, UniProt Q13702 2-412, looked up)
43 kDa receptor-associated …: GQDQTKQQIEKGLQLYQSNQTEKALQVWTKVLEKSSDLMGRFRVLGCLVTAHSEMGRYKEMLKFAVVQIDTARELEDADFLLESYLNLARSNEKLCEFHKTISYCKTCLGLPGTRAGAQLGGQVSLSMGNAFLGLSVFQKALESFEKALRYAHNNDDAMLECRVCCSLGSFYAQVKDYEKALFFPCKAAELVNNYGKGWSLKYRAMSQYHMAVAYRLLGRLGSAMECCEESMKIALQHGDRPLQALCLLCFADIHRSRGDLETAFPRYDSAMSIMTEIGNRLGQVQALLGVAKCWVARKALDKALDAIERAQDLAEEVGNKLSQLKLHCLSESIYRSKGLQRELRAHVVRFHECVEETELYCGLCGESIGEKNSRLQALPCSHIFHLRCLQNNGTRSCPNCRRSSMKPGFV
modifications: 32P-phosphorylated (ATP)
notes: 43K rapsyn phosphorylated with ^32P-ATP
- P-aa stability (base) [4]: base-labile
- P-aa stability (base) ([4]; listed as ATP-^32P-43K rapsyn): alkaline labile
- % 32P remaining ([4]; PVDF blot, 1 N KOH 46° C. 40 min, relative to control): 41 ± 1%
- % 32P remaining ([4]; PVDF blot, 1 N KOH 46° C. 120 min, relative to control): 18 ± 2%
- % 32P remaining ([4]; PVDF blot, 1 N KOH 46° C. 120 min, relative to control, listed as ATP-^32P-43K rapsyn): 18±2%
- P-aa stability (acid) [4]: acid-stable
- P-aa stability (acid) ([4]; listed as ATP-^32P-43K rapsyn): acid stable
- % 32P remaining ([4]; SDS-PAGE gel, 16% TCA, 90° C. 5 min, relative to control): 79 ± 5%
- % 32P remaining ([4]; SDS-PAGE gel, 16% TCA, 90° C. 5 min, relative to control, listed as ATP-^32P-43K rapsyn): 79±5%
- % 32P remaining ([4]; SDS-PAGE gel, 16% TCA, 90° C. 10 min, relative to control): 49 ± 9%
- % 32P remaining ([4]; SDS-PAGE gel, 16% TCA, 90° C. 10 min, relative to control, listed as ATP-^32P-43K rapsyn): 49±9%
- Paa/pH-stability ([4]; putative Paa listed in both acid- and base-stability analysis (ref. 45)): P-Ser and/or P-Thr

B2: 43K-rapsyn/TTP: 43K rapsyn phosphorylated with ^32P-TTP (protein, UniProt Q13702 2-412, looked up)
43 kDa receptor-associated …: GQDQTKQQIEKGLQLYQSNQTEKALQVWTKVLEKSSDLMGRFRVLGCLVTAHSEMGRYKEMLKFAVVQIDTARELEDADFLLESYLNLARSNEKLCEFHKTISYCKTCLGLPGTRAGAQLGGQVSLSMGNAFLGLSVFQKALESFEKALRYAHNNDDAMLECRVCCSLGSFYAQVKDYEKALFFPCKAAELVNNYGKGWSLKYRAMSQYHMAVAYRLLGRLGSAMECCEESMKIALQHGDRPLQALCLLCFADIHRSRGDLETAFPRYDSAMSIMTEIGNRLGQVQALLGVAKCWVARKALDKALDAIERAQDLAEEVGNKLSQLKLHCLSESIYRSKGLQRELRAHVVRFHECVEETELYCGLCGESIGEKNSRLQALPCSHIFHLRCLQNNGTRSCPNCRRSSMKPGFV
modifications: 32P-phosphorylated (TTP)
notes: 43K rapsyn phosphorylated with ^32P-TTP
- Paa/pH-stability [4]: P-His and/or P-Lys
- % 32P remaining ([4]; 40 min): 96 ± 3%

Source: patent US20030180396A1, “Method of effecting phosphorylation in eucaryotic cells using thiamine triphosphate” (INSTITUT PASTEUR, priority 1999, published 2003)
